Results taken from patent US4152440A, “Novel derivatives of imidazole, and pharmaceutical compositions containing them” (Hoechst Aktiengesellschaft, priority 1975, dated 1979).

Assays:
Oxonat rat [1] = test: Combined metabolic test in the Oxonat rat (Test 2 of Table 2): uric acid in urine and serum; format: in vivo, male Wistar rats; conditions: for Serum - uric acid / Separation of uric acid in the urine, 3rd day / Serum - uric acid, % of control: 3rd day; for Separation of uric acid in the urine, 1st day: 1st day (urine collected before administration, control value)
Method: (§1) In this test series, the uricase activity of the rats' livers is inhibited by the application of potassium oxonate (potassium salt of 2,4-dihydroxy-1,3,5-triazine-(6)-carboxylic acid) and thus a gout-like disorder of the purine metabolism is induced. The animals are tested in two different ways.
(§2) 18 hours before the start of the test, the animals were placed separately in metabolism cages. At the same time they were offered unlimited quantities of a 0.5% potassium oxonate solution to drink. On the 1st day of the test, first the urine samples collected were removed (control value) then the substances to be tested were administered in a 0.5% potassium oxonate solution by oesophageal tube into the stomach. The same operation was repeated on the 2nd day of the test. After removal of the 24 hour urine (1st sample after administration of the preparation) the test substances were administered a second time by oesophageal tube. On the 3rd day of the test, the animals were killed and bled, immediately after the urine samples from the preceding 24 hours had been collected (2nd sample after administration of the preparation). Both in the serum obtained and also in the urine samples, the concentration of uric acid was determined enzymatically, using the uricase method (Uricaquant, Boehringer Mannheim), together with a large number of metabolic parameters.
This test series differs from the diuresis test described in 1) only in the method of administration of the uricase inhibitor. The animals drink water throughout the test and are given the potassium oxonate in a special feed mixture consisting of normal standard rat food to which 5% fructose, 3% uric acid, 2% potassium oxonate and 0.1% sweetener have been added. The administration of the preparations to be tested and the analysis of the urine samples from the 1st, 2nd and 3rd days of the test and of the serum samples obtained on the 3rd day of the test were carried out as described in the diuresis test.

[2] = Acute toxicity (LD50), oral by oesophageal tube; conditions: rat, in vivo, rats, mortality within 7 days
Oxonat rat [3] = test: Diuresis test in the Oxonat rat (Test 1 of Table 2): uric acid in urine and serum; format: in vivo, male Wistar rats; conditions: 25 mg/kg oral, n=8, diuresis test (Test 1)
Method: The compounds may therefore be useful as therapeutic agents for various disorders of purine metabolism, particularly in treating primary and secondary gout.
as §1, §2

[4] = 50 mg/kg oral, n=8, comparison preparation, own control group (Test 2)
[5] = 25 mg/kg oral, n=8, combined metabolic test (Test 2)
[6] = 25 mg/kg oral, n=8, combined metabolic test (Test 2), * p<0.05 (Duncan), control 8.64± 3.51

Structure (SMILES) | Serum - uric acid (Oxonat rat [1]; 50 mg/kg oral, n=8, comparison preparation (Test 2), own control 6.70± 0.89) | Separation of uric acid in the urine, 1st day (Oxonat rat [1]; [4]) | Separation of uric acid in the urine, 2nd day (Oxonat rat [1]; [4]) | Separation of uric acid in the urine, 3rd day (Oxonat rat [1]; [4]) | Separation of uric acid in the urine, 2nd day (Oxonat rat [1]; [5]) | Separation of uric acid in the urine, 3rd day (Oxonat rat [1]; [5]) | Serum - uric acid, % of control (Oxonat rat [1]; [5]) | Serum - uric acid (Oxonat rat [1]; [6]) | LD50 at 168 h [2] | Separation of uric acid in the urine, 1st day (Oxonat rat [1]; [5]) | Separation of uric acid in the urine, 1st day (Oxonat rat [3]; 1st day (urine collected before administration, control value)) | Separation of uric acid in the urine, 2nd day (Oxonat rat [3]; 2nd day) | Separation of uric acid in the urine, 3rd day (Oxonat rat [3]; 3rd day) | Serum - uric acid, % of control (Oxonat rat [3]; 3rd day) | Serum - uric acid (Oxonat rat [3]; 3rd day, * p<0.05 (Duncan), control 3.50± 1.15)
Oc1ncnc2[nH]ncc12 [Allopurinol, 1 H-Pyrazolo[3,4-]pyrimidine-4-ol, reference compound] | 6.21± 0.76 mg % | 0.99± 0.51 | 2.16± 0.81 | 3.82± 1.59 | – | – | – | – | – | – | – | – | – | – | –
Cn1ccnc1Cc1nnn[nH]1 [Example 1, 1-Methyl-2-(5-tetrazolylmethyl)-imidazole] | – | – | – | – | 3.30± 2.12 | 3.32± 1.94 | -44% | 4.83± 1.69 mg % | > 3150 mg/kg | – | – | – | – | – | –
CC(C)n1ccnc1Cc1nn[nH]n1 [Example 3, 1-Isopropyl-2-(5-tetrazolymethyl)-imidazole] | – | – | – | – | 2.25± 0.41 | – | -19% | 6.97± 2.07 mg % | – | 1.68± 0.51 | – | – | – | – | –
c1ccc(Cn2ccnc2Cc2nn[nH]n2)cc1 [Example 5, 1-benzyl-2-(5-tetrazolymethyl)-imidazole] | – | – | – | – | 2.76± 1.21 | 2.28± 1.31 | -30% | 6.05± 1.96 mg % | – | 1.78± 0.92 | – | – | – | – | –
Cc1ccccc1-n1ccnc1Cc1nnn[nH]1 [Example 11, 1-(o-Tolyl)-2-(5-tetrazolylmethyl)-imidazole] | – | – | – | – | 2.24± 0.57 | 2.33± 1.70 | -31% | 6.00± 1.73 mg % | – | 1.12± 0.64 | – | – | – | – | –
c1ccc(Cn2ccnc2-c2nnn[nH]2)cc1 [Example 24, 1-Benzyl-2-(5-tetrazolyl)-imidazole] | – | – | – | – | 2.04± 0.80 | 2.51± 1.55 | -30% | 6.07± 1.63 mg % | > 4000 mg/kg | 1.81± 0.61 | 2.56± 1.14 | 3.97± 1.44 | 3.47± 1.31 | -31% | 2.41± 0.98 mg %
